The source of these data is article PMC3935458 (Journal of medicinal chemistry, 2012).

Broadly, the IC50 is the concentration that inhibits the measured activity by half.

In test [1] the test system is phosphorylation of C-Nap1. As to the kind of experiment: Phosphorylated C-Nap1 in cell assay. To be noted: for modulation of C-Nap1 phosphorylation: aphidicolin-synchronized U2OS cells, different concentrations.
The target of a further test is T1, Nek2 (Homo sapiens, UniProt P51955).
T1 sequence (P51955 1-445): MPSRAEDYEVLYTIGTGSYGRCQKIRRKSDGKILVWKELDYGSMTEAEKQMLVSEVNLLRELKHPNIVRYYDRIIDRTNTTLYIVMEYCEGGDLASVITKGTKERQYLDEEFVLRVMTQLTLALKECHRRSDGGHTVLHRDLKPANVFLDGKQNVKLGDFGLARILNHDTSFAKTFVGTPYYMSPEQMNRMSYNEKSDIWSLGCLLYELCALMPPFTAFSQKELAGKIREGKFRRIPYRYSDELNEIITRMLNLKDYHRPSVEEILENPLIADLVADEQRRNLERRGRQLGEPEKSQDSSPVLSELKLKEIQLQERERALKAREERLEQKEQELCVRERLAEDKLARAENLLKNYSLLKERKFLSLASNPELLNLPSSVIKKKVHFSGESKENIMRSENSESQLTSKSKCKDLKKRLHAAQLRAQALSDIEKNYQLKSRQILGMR
The format is biochemical.

For the compound `C[C@@H](/C=C\C(F)(F)F)Oc1cc(-c2cc(-c3cc(CN(C)C)cs3)cnc2N)ccc1C(N)=O` [(S)-21, (S)-(Z)-4-(2-Amino-5-(4-((dimethylamino)methyl)thiophen-2-yl)pyridin-3-yl)-2-((5,5,5-trifluoropent-3-en-2-yl)oxy)benzamide], the “modulation of C-Nap1 phosphorylation” value in test [1] is given as “significantly less suppression of C-Nap1 phosphorylation”.
`CC(Oc1cc(-c2cc(-c3ccc(CN4CCOCC4)s3)cnc2N)ccc1C(N)=O)c1ccccc1C(F)(F)F` (stereo not shown) [17g]: the “increase of Nek2 IC50 compared with compound 17c” value on Nek2 is given as “more than 7 fold”.
As to `CC(Oc1cc(-n2cnc3cc(OC4CCN(C)CC4)ccc32)ccc1C(N)=O)c1ccccc1C(F)(F)F` (racemic) [rac-3, reference compound], the “modulation of C-Nap1 phosphorylation” value in test [1] is reported as “did not show any significant modulation of C-Nap1 phosphorylation”.
Consider `C[C@@H](Oc1cc(-c2cc(-c3cc(CN(C)C)cs3)cnc2N)ccc1C(N)=O)c1ccccc1C(F)(F)F` [(R)-17j], for which the IC50 in test [1] (Homo sapiens, U2OS, 3 h, read-out: IC50 for C-Nap1 phosphorylation inhibition) was 2700 nM.
